Reference: PMC7325174 (bioRxiv, 2020)

How the values were obtained:
Vero E6 cells = details: parallel plates
SARS-CoV-2 = format: cell-based

Cc1nc2ccc(Br)cc2c(-c2ccc(Cl)cc2)c1C(OC(C)(C)C)C(=O)O (centres unmarked) [ALLINI-2]
compound cytotoxicity (in words) (Vero E6 cells): without apparent cytotoxicity
effect on SARS-CoV-2 viral RNA in supernatants / replication (in words) (SARS-CoV-2): modestly inhibited

CCOC(=O)[C@H]1O[C@@H]1C(=O)N[C@@H](CC(C)C)C(=O)NCCC(C)C [E64D]
compound cytotoxicity (in words) (Vero E6 cells): minimal cytotoxicity
effect on SARS-CoV-2 viral RNA in supernatants / replication (in words) (SARS-CoV-2): substantially decreased
potency at 48 hpi compared with 24 hpi (in words) (SARS-CoV-2): less potent
IC50 (SARS-CoV-2; read-out: IC50, SARS-CoV-2 viral RNA in supernatants): 3.3 µM

CC(C)CN(C[C@@H](O)[C@H](Cc1ccccc1)NC(=O)O[C@H]1CCOC1)S(=O)(=O)c1ccc(N)cc1 [amprenavir]
compound cytotoxicity (in words) (Vero E6 cells): without apparent cytotoxicity
effect on SARS-CoV-2 viral RNA in supernatants / replication (in words) (SARS-CoV-2): modestly inhibited

Cc1cccc(/C=N/Nc2cc(N3CCOCC3)nc(OCCc3ccccn3)n2)c1 [apilimod]
compound cytotoxicity (in words) (Vero E6 cells): minimal cytotoxicity
effect on SARS-CoV-2 viral RNA in supernatants / replication (in words) (SARS-CoV-2): substantially decreased
potency at 48 hpi compared with 24 hpi (in words) (SARS-CoV-2): less potent

Cc1ccnc2c1NC(=O)c1cccnc1N2C1CC1 [nevirapine]
compound cytotoxicity (in words) (Vero E6 cells): without apparent cytotoxicity
effect on SARS-CoV-2 viral RNA in supernatants / replication (in words) (SARS-CoV-2): modestly inhibited

CCC(CC)COC(=O)[C@H](C)N[P@](=O)(OC[C@H]1O[C@@](C#N)(c2ccc3c(N)ncnn23)[C@H](O)[C@@H]1O)Oc1ccccc1 [remdesivir]
effect on SARS-CoV-2 viral RNA in supernatants / replication (in words) (SARS-CoV-2): substantially decreased
